These are literature values, as cited in patent publication US20110184054A1, “Alpha-lipoic acid concentrate” (AQUANOVA GERMAN SOLUBILISATE TECHNOLOGIES (AGT) GmbH, priority 2004, published 2011).

Turning to `O=C(O)CCCCC1CCSS1` (stereo not drawn) [α-lipoic acid], the appetite suppressing effect entry in the data set on rats was “a certain appetite suppressing effect”. Moreover, the “effect on problems of overweight patients” value in the data set with overweight patients was “alleviates their problems”.
